Experiment [1] deals with Kelch domain of human KEAP1 (321-624 aa) (Homo sapiens (Human), UniProt Q14145). Briefly: KEAP1 KELCH ThermoFluor binding assay.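 Further: Ligand-induced melting temperature shift of E. coli-expressed KEAP1 Kelch protein, Kd estimated from concentration-response curves of ΔTm.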 The following applies: KEAP Kelch […], 1,8-ANS, pH 7.0, average of results obtained, read-out: Tf Kd.
Experiment [2] has as its system Glo-Response ARE-luc2P HEK293 cell line. Put plainly: ARE luciferase reporter cell-based assay.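 Further: luciferase signal tracks Nrf2 activation of the ARE once compounds disrupt KEAP1-Nrf2 binding, read with One-Glo reagent, DMSO serving as low control.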 As to conditions: Homo sapiens, HEK293, 24 h, average of results obtained. On the technique in general: Reporter assays use an easily measured gene product as a stand-in for the process of interest.

Bounds are passed on as bounds.

Kelch domain of human KEAP1 (321-624 aa), sequence (Q14145 321-624): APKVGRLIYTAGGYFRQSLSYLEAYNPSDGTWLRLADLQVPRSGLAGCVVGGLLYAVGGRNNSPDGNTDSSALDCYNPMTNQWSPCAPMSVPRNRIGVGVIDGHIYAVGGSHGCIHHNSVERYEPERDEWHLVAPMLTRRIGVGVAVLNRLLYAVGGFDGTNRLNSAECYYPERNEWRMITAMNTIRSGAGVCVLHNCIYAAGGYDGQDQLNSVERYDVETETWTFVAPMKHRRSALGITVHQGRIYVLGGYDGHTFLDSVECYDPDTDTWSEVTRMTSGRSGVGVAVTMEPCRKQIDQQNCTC

As to `Cc1ccc([C@@H](c2ccn3c(C(F)(F)F)nnc3c2C)C(C)(C)C(=O)O)cc1CN1CC2(CCOCC2)Oc2nc(OCCCO)ccc2S1(=O)=O` (single isomer, unassigned) [Example 50, (*S)-3-(3-((7′-(3-Hydroxypropoxy)-1′,1′-dioxido-2,3,5,6-tetrahydrospiro[pyran-4,4′-pyrido[2,3-b][1,4,5]oxathiazepin]-2′(3′H)-yl)methyl)-4-methylphenyl-2,2′-dimethyl-3-(8-methy-3-trifluoromethyl)-[1,2,4]triazolo[4,3-a]pyridine-7-yl)propanoic Acid], the Kd in experiment [1] was less than 1 nM. Also, the EC50 in experiment [2] is 52 nM.

Consider `Cc1ncc([C@H](CC(=O)O)c2ccn3c(C(F)(F)F)nnc3c2C)cc1CN1CC2(CCOCC2)Oc2ncccc2S1(=O)=O` (single isomer, unassigned) [Example 564, (*R)-3-(5-((1′,1′-Dioxido-2,3,5,6-tetrahydrospiro[pyran-4,4′-pyrido[2,3-b][1,4,5]oxathiazepin]-2′(3′H)-yl)methyl)-6-methylpyridin-3-yl)-3-(8-methyl-3-(trifluoromethyl)-[1,2,4]triazolo[4,3-a]pyridin-7-yl)propanoic Acid], for which the Kd in experiment [1] was determined as 323 nM. The molecule also came in with a 50% effective concentration (EC50) in experiment [2] greater than 20000 nM.

For `Cc1ccc([C@@H](CC(=O)O)c2ccc3c(nnn3CC3CC3)c2C)cc1CN1C[C@H]2CCCN2c2ncccc2S1(=O)=O` (single isomer, unassigned) [Example 401, (*R)-3-(1-(Cyclopropylmethyl)-4-methyl-1H-benzo[d][1,2,3]triazol-5-yl)-3-(3-(((R)-5,5-dioxido-7a,8,9,10-tetrahydropyrido[2,3-f]pyrrolo[2,1-d][1,2,5]thiadiazepin-6(7H)-yl)methyl)-4-methylphenyl)propanoic acid], the dissociation constant Kd in experiment [1] was less than 1 nM. In experiment [2], this molecule displayed an EC50 of 2.7 nM.

`Cc1ccc(C(CC(=O)O)c2ccn3c(C(F)F)nnc3c2C)cc1CN1CC2CCCCN2c2ncc(C#N)cc2S1(=O)=O` (centres unmarked) [Example 28, 3-(3-((3-Cyano-5,5-dioxido-7,7a, 8,9,10,11-hexahydro-6H-dipyrido[2,1-d:2′,3′-f][1,2,5]thiadiazepin-6-yl)methyl)-4-methylphenyl)-3-(3-(difluoromethyl)-8-methyl-[1,2,4]triazolo[4,3-a]pyridin-7-yl)propanoic Acid]: in experiment [1], the Kd was less than 1 nM. The molecule further registered an EC50 in experiment [2] of 23.5 nM.

Consider `Cc1ccc([C@@H](CC(=O)O)c2ccn3c(C(F)(F)F)nnc3c2C)nc1CN1CC2(COC2)Oc2ccccc2S1(=O)=O` (single isomer, unassigned) [Example 485, (*S)-3-(6-((1,1-dioxidospiro[benzo[b][1,4,5]oxathiazepine-4,3′-oxetan]-2(3H)-yl)methyl)-5-methylpyridin-2-yl)-3-(8-methyl-3-(trifluoromethyl)-[1,2,4]triazolo[4,3-a]pyridin-7-yl)propanoic Acid], for which the Kd in experiment [1] is less than 1 nM. The molecule also came in with an EC50 in experiment [2] of 156 nM.

In the case of `Cc1ccc([C@H](c2ccn3c(C(F)(F)F)nnc3c2C)C(C)(C)C(=O)O)cc1CN1CC2(CC2)Oc2ncccc2S1(=O)=O` (single isomer, unassigned) [Example 318, (*R)-3-(3-((1′,1′-Dioxidospiro[cyclopropane-1,4′-pyrido[2,3-b][1,4,5]oxathiazepin]-2′(3′H)-yl)methyl)-4-methylphenyl)-2,2-dimethyl-3-(8-methyl-3-(trifluoromethyl)-[1,2,4]triazolo[4,3-a]pyridin-7-yl)propanoic Acid], the dissociation constant (Kd) in experiment [1] is 1990 nM. The same molecule displayed an EC50 in experiment [2] of 598 nM.

As to `Cc1ccc([C@H](c2ccc3c(nnn3CC3CC3)c2C)C(C)(C)C(=O)O)nc1CN1CC2(CCOCC2)Oc2nc(OCCN3CCOCC3)ccc2S1(=O)=O` (single isomer, unassigned) [Example 329, (*R)-3-(1-(Cyclopropylmethyl)-4-methyl-1H-benzo[d][1,2,3]triazol-5-yl)-2,2-dimethyl-3-(5-methyl-6-((7′-(2-morpholinoethoxy)-1′,1′-dioxido-2,3,5,6-tetrahydrospiro[pyran-4,4′-pyrido[2,3-b][1,4,5]oxathiazepin]-2′(3′H)-yl)methyl)pyridin-2-yl)propanoic Acid], the Kd in experiment [1] stood at 1880 nM. In experiment [2], a half-maximal response (EC50) required 1900 nM.

With `Cc1ccc([C@@H](c2ccn3c(C(F)(F)F)nnc3c2C)C(C)(C)C(=O)O)nc1CN1CC2(CC2)Oc2nc(OCCN3CCCC3)c(C)cc2S1(=O)=O` (single isomer, unassigned) [Example 634, (*S)-2,2-Dimethyl-3-(8-methyl-3-(trifluoromethyl)-[1,2,4]triazolo[4,3-a]pyridin-7-yl)-3-(5-methyl-6-((8′-methyl-1′,1′-dioxido-7′-(2-(pyrrolidin-1-yl)ethoxy)spiro[cyclopropane-1,4′-pyrido[2,3-b][1,4,5]oxathiazepin]-2′(3′H)-yl)methyl)pyridin-2-yl)propanoic Acid], the Kd in experiment [1] is less than 1 nM. This molecule yielded an EC50 in experiment [2] of 9.53 nM.

In the case of `Cc1ccc([C@H](c2ccn3c(C(F)(F)F)nnc3c2C)C(C)(C)C(=O)O)cc1CN1CC2(CC2)Oc2nc(N[C@@H](C)CN3CCCCC3)c(C)cc2S1(=O)=O` (single isomer, unassigned) [Example 380, (*R)-2,2-Dimethyl-3-(4-methyl-3-((8′-methyl-1′,1′-dioxido-7′-(((S)-1-piperidin-1-yl)propan-2-yl)amino)spiro[cyclopropane-1,4′-pyrido [2,3-b][1,4,5]oxathiazepin]-2′(3′H)-yl)methyl)phenyl)-3-(8-methyl-3-(trifluoromethyl)-[1,2,4]triazolo[4,3-a]pyridine-7-yl)propanoic Acid], the Kd in experiment [1] is less than 1 nM. Moreover, the concentration giving a half-maximal response (EC50) in experiment [2] came to 14.1 nM.

For `Cc1cnc2c(c1)S(=O)(=O)N(Cc1cc([C@H](c3ccn4c(C(F)F)nnc4c3C)C(C)(C)C(=O)O)ncc1C)CC1(CC1)O2` (single isomer, unassigned) [Example 333, (*R)-3-(3-(difluoromethyl)-8-methyl-[1,2,4]triazolo[4,3-a]pyridin-7-yl)-2,2-dimethyl-3-(5-methyl-4-((8′-methyl-1′,1′-dioxidospiro[cyclopropane-1,4′-pyrido[2,3-b][1,4,5]oxathiazepin]-2′(3′H)-yl)methyl)pyridin-2-yl)propanoic Acid], the Kd in experiment [1] was 1720 nM. The midpoint of the response in experiment [2], the EC50, lay at 3980 nM.

As for `Cc1c([C@@H](CC(=O)O)c2ccc(Cl)c(CN3CC4CCCCN4c4ncccc4S3(=O)=O)c2)ccn2c(C(F)(F)F)nnc12` (single isomer, unassigned) [Example 84, (*S)-3-(4-Chloro-3-(((*S)-5,5-dioxido-7,7a,8,9,10,11-hexahydro-6H-dipyrido[2,1-d:2′,3′-][1,2,5]thiadiazepin-6-yl)methyl)phenyl)-3-(8-methyl-3-(trifluoromethyl)-[1,2,4]triazolo[4,3-a]pyridine-7-yl)propanoic Acid], in experiment [1], the Kd was less than 1 nM. Besides, the EC50 in experiment [2] worked out at 80.5 nM.

`Cc1ccc([C@H](c2ccn3c(C(F)(F)F)nnc3c2C)C(C)(C)C(=O)O)cc1CN1CC2(CCOCC2)Oc2nc(NC(C)CN3CCCCC3)c(C)cc2S1(=O)=O` (stereo in doubt) [Example 376, 3-(*R)-2,2-Dimethyl-3-(4-methyl-3-((8′-methyl-1′,1′-dioxido-7′-((1-piperidin-1-yl)propan-2-yl)amino)-2,3,5,6-tetrahydrospiro[pyran-4,4′-pyrido[2,3-b][1,4,5]oxathiazepin]-2′(3′H)-yl)methyl)phenyl)-3-(8-methyl-3-(trifluoromethyl)-[1,2,4]triazolo[4,3-a]pyridine-7-yl)propanoic Acid]: the Kd in experiment [1] was less than 1 nM. Besides, the EC50 in experiment [2] was determined as 57.3 nM.

Regarding `Cc1ccc([C@H](CC(=O)O)c2ccn3c(C(F)(F)F)nnc3c2C)cc1CN1CC2(CC2)Oc2ncccc2S1(=O)=O` (single isomer, unassigned) [Example 7, (*S)-3-(3-((1′,1′-Dioxidospiro[cyclopropane-1,4′-pyrido[2,3-b][1,4,5]oxathiazepin]-2′(3′H)-yl)methyl)-4-methylphenyl)-3-(8-methyl-3-(trifluoromethyl)-[1,2,4]triazolo[4,3-a]pyridin-7-yl)propanoic Acid], the Kd in experiment [1] came out at 0.127 nM. The molecule also gave an EC50 in experiment [2] of 74 nM.

For `Cc1cnc2c(c1)S(=O)(=O)N(Cc1nc([C@@H](c3ccn4c(C(F)F)nnc4c3C)C(C)(C)C(=O)O)ccc1C)CC1(CNC1)O2` (single isomer, unassigned) [Example 632, (*S)-3-(3-(Difluoromethyl)-8-methyl-[1,2,4]triazolo[4,3-a]pyridin-7-yl)-2,2-dimethyl-3-(5-methyl-6-((8′-methyl-1′,1′-dioxidospiro[azetidine-3,4′-pyrido[2,3-b][1,4,5]oxathiazepin]-2′(3′H)-yl)methyl)pyridin-2-yl)propanoic Acid], the Kd in experiment [1] worked out at 21200 nM. For the same molecule, in experiment [2], the response was half-maximal at 18100 nM (EC50).

For the molecule `Cc1ccc([C@H](c2ccn3c(C(F)(F)F)nnc3c2C)[C@H](C)C(=O)O)cc1CN1CC2(CC2)Oc2ncccc2S1(=O)=O` (single isomer, unassigned) [Example 554, (2S,3*R)-3-(3-(Trifluoromethyl)-8-methyl-[1,2,4]triazolo[4,3-a]pyridin-7-yl)-3-(3-((1′,1′-dioxidospiro[cyclopropane-1,4′-pyrido[2,3-b][1,4,5]oxathiazepin]-2′(3′H)-yl)methyl)-4-methylphenyl)-2-methylpropanoic Acid], the Kd in experiment [1] is less than 1 nM. Besides, in experiment [2], the EC50 turned out to be 181 nM.

Turning to `Cc1ccc([C@@H](CC(=O)O)c2ccc3c(nnn3C3CC3)c2C)cc1CN1C[C@]2(C)CCCN2c2ncccc2S1(=O)=O` (single isomer, unassigned) [Example 220, (*R)-3-(1-Cyclopropyl-4-methyl-1H-benzo[d][1,2,3]triazol-5-yl)-3-(4-methyl-3-(((*S)-7a-methyl-5,5-dioxido-7a,8,9,10-tetrahydropyrido[2,3-f]pyrrolo[2,1-d][1,2,5]thiadiazepin-6(7H)-yl)methyl)phenyl)propanoic Acid], the Kd in experiment [1] is less than 1 nM. For the same molecule, the EC50 in experiment [2] was 61 nM.

One may read the Kd as the free concentration of one partner at which half of the binding sites on the other are occupied at equilibrium, for simple one-to-one binding. In general, EC50 refers to the concentration needed to bring the measured effect to its halfway point. Low values mean an effect from little substance, high ones a need for much substance.
